Marks after values point to notes of the source that are not given here.
Assays:
CD8+ T cells = assay: CFSE flow cytometry proliferation assay, Concanavalin A-stimulated splenocytes, CD8+ T cells; format: cell-based, mice; details: 100 mg ABA/kg diet; first 4 generations
Method: Single cell suspensions were prepared from the spleen by gently crushing the spleens excised during the necropsy procedure between the frosted ends of microscope glass slides previously autoclaved. Tissue debris were removed by settling, erythrocytes were eliminated by hypotonic lysis and cells finally resuspended in complete RPMI (cRPMI, 10% fetal bovine serum (Hyclone, Logan, Utah), 25 mM HEPES buffer (Sigma, St. Louis, Mo.), 100 units/ml penicillin (Sigma), […] streptomycin (Sigma), 1 mM sodium pyruvate (Sigma), 1 mM nonessential aminoacids (Sigma), and 2 mM essential amino acids (Mediatech), and enumerated with a Coulter Z1 Single Particle Counter (Beckman Coulter, Miami, Fla.). […]
Splenocytes at 10^6 cells/ml were seeded in 96-well, round-bottom microtiter plates and incubated incomplete RPMI with or without Concanavalin A (Sigma) at 2.5 μg/ml. […] Following 2 washes in Fluorescence activated cell sorting (FACS) buffer, cells were incubated with streptavidin-PeCy5 (Pharmingen, San Diego, Calif.) for the biotinylated anti-mouse CD4 antibody. Cells were analyzed by 3-color flow cytometry (CFSE, phycoerythrin and PeCy5) in a FACScalibur instrument (Becton Dickinson). Ten thousand events were acquired, and data were analyzed using the Cell Quest Pro™ software (Becton Dickinson). Proliferation was assessed by the decrease in fluorescent intensity of CFSE staining. […]

[1] = all studies conducted with ABA; cited from earlier work
CTLA-4 on CD4+ T cells = assay: CTLA-4 assessment in cultured CD3/CD28-stimulated splenocytes; format: cell-based, mice; details: ABA 10 μM, 20 hr
Method: Splenocytes from wild-type mice (n=2) were isolated under sterile conditions and seeded into 96-well plates as described above. Cells were stimulated with anti-CD3 (5 μg/mL; BD Pharmingen) and anti-CD28 (1 μg/mL; BD Pharmingen) to induce proliferation and then treated with DMSO or ABA (10 μM, Sigma). Cells were then placed in a 37° C. incubator with 5% CO2 for 20 hours and immunophenotyped with anti-CD4 Alexa Fluor 700 (BD Pharmingen), anti-CD3-PE-Cy5 (BD Pharmingen), anti-CD8-PerCp-Cy5.5 (eBioscience), and'anti-CD152 (CTLA-4)-biotin (BD). Streptavidin PE-Texas Red (1 μg/mL; BD Pharmingen) was used as a secondary antibody. Flow results were computed with a BD LSR II flow cytometer and data analyses was performed with FACS Diva software (BD).

[2] = tested on: dextran sodium sulfate (DSS)-induced colitis; assay: DSS-induced colitis in C57BL/6J (wt) and PPAR γ flfl; CD4 Cre+ mice; format: in vivo
Method: Eight to twelve week old C57BL/6J (n=16) and PPAR γ flfl; CD4 cre+(n=20) mice were housed at the animal facilities at Virginia Polytechnic Institute and State University in a room maintained at 75° F., with a 12:12 h light-dark cycle starting from 6:00 AM. All experimental procedures were approved by the Institutional Animal Care and Use Committee of Virginia Polytechnic Institute and State University and met or exceeded requirements of the Public Health Service/National Institutes of Health and the Animal Welfare Act. C57BL/6J mice were fed AIN-93G-based diets with or without 100 mg/kg of a racemic ABA mixture for 35 days prior to induction of colitis with water containing 2.5% dextran sodium sulfate (DSS), 36,000-44,000 mol wt (ICN Biomedicals, Aurora, Ohio). After the DSS challenge mice were weighed on a daily basis and examined for clinical signs of disease associated with colitis (i.e., perianal soiling, rectal bleeding, diarrhea, and piloerection). For the DSS challenge, the disease activity indices and rectal bleeding scores were calculated using a modification of a previously published compounded clinical score (50). […] Spleen and mesenteric lymph nodes (MLN) were scored based on size and macroscopic inflammatory lesions (0-3), excised, and then crushed to produce single-cell suspensions for flow cytometry.

## CC1=CC(=O)CC(C)(C)C1(O)/C=C/C(C)=C\C(=O)O (racemic) [ABA, abscisic acid]
CD8+ T cells
  CD8+ T cells RPI1: 5.261*
[1]
  side-effects: no side-effects observed
CTLA-4 on CD4+ T cells
  CTLA-4 median fluorescence intensity (MFI) on CD4+ cells: increased CTLA-4 MFI
  percent of CD4+ T cells expressing CTLA-4: significantly increased
[2]; CD4cre mice lacking PPAR γ in CD4+ T cells
  improvements in disease activity and inflammation: not present in the CD4cre mice
[2]; wild-type (wt) mice
  disease activity and macroscopic inflammation: significantly reduced disease activity and macroscopically observable inflammation
